This passage reports EC50 results from BindingDB's records for doi:10.1016/j.ejmech.2014.09.039 (2014).

pEC50: −log10 of the molar value.

The target of the assay is Neuronal acetylcholine receptor subunit alpha-7 (Homo sapiens, UniProt P36544). In words: Positive allosteric modulation at human alpha7 nACHR expressed in Xenopus oocyte assessed as potentiation of ACh-induced current at holding potential of -80 mV measured as ACh EC50 at 1 uM by electrophysiology (Rvb = 176 uM).
Sequence of Neuronal acetylcholine receptor subunit alpha-7 (P36544 whole entry): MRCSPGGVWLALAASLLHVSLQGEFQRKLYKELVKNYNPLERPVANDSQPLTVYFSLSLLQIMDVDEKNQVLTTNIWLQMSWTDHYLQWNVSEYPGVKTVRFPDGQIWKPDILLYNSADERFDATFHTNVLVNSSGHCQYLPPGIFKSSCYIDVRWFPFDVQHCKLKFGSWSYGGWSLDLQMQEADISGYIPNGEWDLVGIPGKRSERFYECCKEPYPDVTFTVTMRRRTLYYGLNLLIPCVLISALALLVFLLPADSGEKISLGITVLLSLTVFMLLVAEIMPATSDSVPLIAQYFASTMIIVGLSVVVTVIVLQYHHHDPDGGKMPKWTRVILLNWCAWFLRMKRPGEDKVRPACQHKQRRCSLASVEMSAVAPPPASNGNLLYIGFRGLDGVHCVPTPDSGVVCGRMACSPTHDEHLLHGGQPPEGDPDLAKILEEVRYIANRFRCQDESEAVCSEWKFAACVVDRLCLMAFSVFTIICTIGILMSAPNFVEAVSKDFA

Regarding `O=C(/C=C/c1ccc(O)cc1)c1cc(O)ccc1O`, the negative logarithm of the EC50 (pEC50) was 4.25.
Turning to `O=C(/C=C/c1ccc(O)cc1O)c1cc(O)ccc1O`, the negative logarithm of the EC50 (pEC50) was 3.90.

The term pEC50 denotes the EC50 on a negative log10 scale, so that one unit is a factor of ten.
